Reference: patent publication US20060241166A1, “Sapphyrins and uses thereof” (Pharmacyclica, Inc., priority 2003, published 2006)
Where “and” joins values, the source holds several entries; their conditions need not be identical. Identical values can stand only once.

What was measured:
cells [1] = assay: Annexin binding apoptosis assay, cells treated with sapphyrins for 24 hrs; format: cell-based; set-up: key: Back = background; Sat = saturated assay conditions: killing greater 95%
Description: (§1) All cell lines were grown in RPMI 1640 with 10% fetal bovine serum. Cells were treated at a density of 100,000 cells/ml with sapphyrins for 24 hrs and then assessed for apoptosis. Some cells were cultured for up to 96 hrs and then assessed for growth inhibition by counting cells using a coulter counter. For the xenograft model, 10 million Ramos cells were injected subcutaneously into the right hind flank of CD-1 nude mice that had been irradiated with 3 Gy 24 hrs prior to tumor implantation. Seven days later, the mice were treated with sapphyrin given intravenously in the tail vein q day×2 doses. Some animals were sacrificed the next day for analysis of drug uptake in tumor and spleen, tumor cell killing and tumor cell culture.
Annexin binding and propidium iodide exclusion were assayed using reagents from Biosource (Camarillo, Calif.) per manufacturer's protocol.

cells [2] = assay: Growth inhibition by cell counting 96 hrs post treatment; format: cell-based; conditions: 0.5 uM sapphyrin
Description: as §1

Animal toxicology = conditions: for Animal toxicology: dose at which deaths were seen: in vivo; for Animal toxicology: highest doses that showed no deaths: numbers in parentheses
[3] = system: Lymphoma, Leukemia and Myeloma cell lines; assay: Cell death in Lymphoma, Leukemia and Myeloma cell lines (FIG. 11); format: cell-based; conditions: 1 μM
Description: (§2) Cytotoxicity was evaluated using Annexin-V staining and caspase activation as markers of apoptosis. Cell lines were grown in RPMI 1640 with 10% heat inactivated fetal bovine serum. Example 12 was added to cell cultures in concentrations ranging from 100 nM-5 μM.

Ramos cells = assay: Cell death in Ramos cell line (FIG. 13-15); format: cell-based
Description: as §1, §2

Structure (SMILES)	% Annexin positive cells after 24 hrs (sapphyrin dose) (cells [1]; 1 uM sapphyrin, listed as Ex. 1)	% Annexin positive cells after 24 hrs (sapphyrin dose) (cells [1]; 2.5 uM sapphyrin, listed as Ex. 1)	% Annexin positive cells after 24 hrs (sapphyrin dose) (cells [1]; 5 uM sapphyrin)	% Annexin positive cells after 24 hrs (sapphyrin dose) (cells [1]; 0.5 Um sapphyrin)	After 96 hr (GI = growth inhibition 96 hrs post treatment compared to control untreated cells) (cells [2]; listed as Ex. 1)	Animal toxicology: animals dead (Animal toxicology; at 26.8 uM/kg)	Animal toxicology: dose at which deaths were seen (Animal toxicology) [uM/kg]	Animal toxicology: highest doses that showed no deaths (Animal toxicology) [uM/kg]	% Annexin positive cells after 24 hrs (sapphyrin dose) (cells [1]; 1 uM sapphyrin) [%]	% Annexin positive cells after 24 hrs (sapphyrin dose) (cells [1]; 2.5 uM sapphyrin)	After 96 hr (GI = growth inhibition 96 hrs post treatment compared to control untreated cells) (cells [2])	Animal toxicology: animals dead (Animal toxicology; at 40 uM/kg)	Increase in cell death [3]	Dose response of cell death (Ramos cells; Ramos cell line, 8 hours, FIG. 14)	Dose response of cell death (Ramos cells; Ramos cell lines, 48 hours incubation, FIG. 13)
CCc1c(CC)c2cc3nc(cc4[nH]c(c(CC)c4CC)c4[nH]c(cc5nc(cc1[nH]2)C(CCCOC(=O)N(CCO)CCO)=C5C)c(CC)c4CC)C(C)=C3CCCOC(=O)N(CCO)CCO [Example 1]	38% and 30%	99% and 96%	sat	Back	91% and 52%	1/9 dead at	26.8	22.3							
CCc1c(CC)c2cc3nc(cc4[nH]c(c(CC)c4CC)c4[nH]c(cc5nc(cc1[nH]2)C(CCCOC(=O)NC(CO)(CO)CO)=C5C)c(CC)c4CC)C(C)=C3CCCOC(=O)NC(CO)(CO)CO [Example 2]			97%	Back			40	30	10	41%	13%	4/6 dead			
CCc1c(CC)c2cc3nc(cc4[nH]c(c(CC)c4CC)c4[nH]c(cc5nc(cc1[nH]2)C(CCCOC(=O)NCCOCCOCCOC)=C5C)c(CC)c4CC)C(C)=C3CCCOC(=O)NCCOCCOCCOC [Example 3]			sat	10.6%					93	sat					
CCc1c(CC)c2cc3nc(cc4[nH]c(c(CC)c4CC)c4[nH]c(cc5nc(cc1[nH]2)C(CCCO)=C5C)c(CC)c4CC)C(C)=C3CCCO [Example 12]													at least a five-fold increase in cell death	An increase in the amount of Example 12 causes an increase in cell death	An increase in the amount of Example 12 causes an increase in cell death
O=C1NC(=O)c2ccccc21 [Phthalimide]			sat	back					16		GI-50%				
